Experimental data from patent US8211940B2 (Debiopharm S.A., priority 2001, dated 2012).
Read-outs that look alike come from different tables or passages of the source.

System: CD-1 mice
From the text: Lethal doses LD10 of a cytostatic active substance determinated in mice is generally considered as being a significative correlation with the maximum tolerated doses (MTD) in man.

## O=C1[O][Pt]2([NH]C3CCCCC3[NH]2)[O]C1=O (stereo not drawn) [Example 1, cis-oxalate (trans l-1,2-cyclohexanediamine)-platinum (II)]
Same solution with addition of oxalic acid at a final concentration of 0.2 mM (second group)
  LD10: around 14.4
Solution of the oxaliplatin active substance alone (first group)
  LD10: around 18.0 mg/kg
